We go through one compound from patent US12643899B2, “Antiviral agents, uses thereof and methods for their preparation” (The University of British Columbia, priority 2020, dated 2026).

The nature of series [1]: MTS cytotoxicity assay in A549 cells. The series is classed as cell-based, human. The note with it: human, A549 cells (human lung carcinoma). As to the method:
(§1) An MTS assay was performed to determine the cytotoxicity concentration 50% (CC50) of cladoniamide A (CA) in human A549 cells, a cell line from human lung carcinoma. Various concentrations of CA were added to cultured A549 cells and incubated (37° C., 5% CO2) for 48 h. Cell viability was then measured by an MTS assay kit (CellTiter 96™ Aqueous One Solution cell proliferation assay, Promega) according to the manufacturer's instructions. Curve fitting was performed in Igor Pro (WaveMetrics) using a hyperbolic fit algorithm (FIG. 1). The CC50 of CA in A549 cells was determined to be 54±5 μM. An MTS assay was also performed to determine the CC50 of CA in human U87 MG cells, a cell line from human brain. Various concentrations of CA were added to cultured U87 MG cells and incubated (37° C., 5% CO2) for 48 h. Cell viability was then measured by an MTS assay kit (CellTiter 96 Aqueous One Solution cell proliferation assay, Promega) according to the manufacturer's instructions. Curve fitting was performed in Igor Pro (WaveMetrics) using a hyperbolic fit algorithm (FIG. 2).

Series [2] can be described thus: MTS cytotoxicity assay in U87 MG cells. In kind it is cell-based. The conditions noted are these: human, U87 MG cells (human brain). As to the method:
as §1
In general terms: Formazan colour is commonly taken as a measure of viable cells.

The test system of series [3] is ZIKV. In words: Plaque assay (PFU) dose response, ZIKV-infected A549 cells. In kind it is cell-based. The note with it: Zika virus. How it is done: Error bars represent SD among 2 biological replicates.
Cultured A549 cells were treated with various concentrations of CA or PF-429242 for 24 h before being washed with PBS and inoculated with ZIKV (ZIKV strain VR 1843, Puerto Rico, 2015; ATCC) at MOI 1.0 for 1 h. Following the removal of the inoculum, cells were incubated in fresh media for 2 d before the supernatant was collected, clarified, and secreted NS1 protein abundance was measured by an ELISA kit (BioFront Technologies) according to the manufacturer's instructions. Curve fitting was performed in Igor Pro (WaveMetrics) using a hyperbolic fit algorithm (FIG. 4; upper and middle plots) and IC50 and TI values obtained. IC50 and TI values were also obtained for CA via plaque assay (PFU; FIG. 4, lower plot). FIG. 4 (upper plot) is an ED50 curve for the PF inhibitor based on the detection of secreted Non-Structural protein 1 (sNS1), secreted viral biomarker. sNS1 was detected using an Elisa test (commercially available). FIG. 4 (middle plot) is an ED50 curve for CA based on the detection of secreted Non-Structural protein 1 (sNS1), secreted viral biomarker. sNS1 was detected using an Elisa test (commercially available).
Bottom: ED50 curve for CA based on the detection of secreted infectious virus particles, as viral biomarker. Titer of the infectious virus particles (Plaque forming units) determined using plaque assays.

A further series has as its system DENV-2. As to the kind of experiment: DENV-2 intracellular dsRNA (Cellomics) in A549 cells. The series is classed as cell-based, dengue virus. How it is done:
(§2) Error bars represent SD among 3 biological replicates. Cultured A549 cells were treated with the indicated concentrations of CA (1=Mock, 2=0 M, 3=1 μM, 4=5 M, 5=10 M, 6=20 µM) or PF-429242 (7=15 M) for 1 h before being washed with PBS and infected with DENV-2, DENV-3, or DENV-4 at MOI 1.0 for 48 h. Cells were labeled for viral dsRNA with […] then imaged and quantified using the Cellomics ArrayScan™ VTI High Content Screening system.
(§3) Viruses. ZIKV: ZIKV strain PRVABC59 (Puerto Rico/2015) (ATCC #VR-1843) was used in these studies, specifically three separate stocks generated in Vero E6 cells with titres of 1.35×10^8 pfu/mL, 1.0×10^7 pfu/mL, and 2.9×10^6 pfu/mL respectively. DENV strains: DENV-2 strain NGC, DENV-3 strain H-87, and DENV-4 strain H-241 were kindly provided by National Microbiology Laboratory, Winnipeg, MB, Canada.
(§4) A549 cells were seeded onto Corning tissue culture treated 96 well plates and incubated at 37 degrees Celsius and 5% CO2 for 24 h. CA was diluted in MEM complete media to concentrations of 1 μM, 5 μM, 10 μM, 20 μM, including a 0 μM condition. Diluted CA was added to each well and cells were incubated at 37 degrees Celsius and 5% CO2 for 1 h. After 1 h, cells were washed once with PBS to remove CA and were then infected with DENV-2, -3 or -4 at an MOI of 1. […] Labeled 96 well plates were imaged and quantified using the Cellomics ArrayScan VTI. […]

A further series has as its system DENV-3. In words: DENV-3 intracellular dsRNA (Cellomics) in A549 cells. The series is classed as cell-based, dengue virus. As to the method:
as §2, §3, §4

Series [4] relates to ZIKV. As to the kind of experiment: Extracellular ZIKV titer in infected brain organoids. In kind it is cell-based, Zika virus. The note with it: 1 μM CA, 72 hours. How it is done: FIG. 18 is a plot showing extracellular ZIKV titer for four brain organoid systems after treatment with 1 μM CA for 72 hours in comparison to untreated controls.
FIG. 17 is a schematic showing the general method 20 used in Example 6. Referring to FIG. 17, following growth of the brain organoids in STEMdiff™ media 22 (4 organoids/well), the media was aspirated 24. Then, 500 μL ZIKV at the desired MOI in fresh media was added 26 and the brain organoids incubated at 37° C. for 3 hours with gentle shaking 28. The brain organoids were then washed with 2×1 mL PBS 30, and fresh media and CA or cladoniamide C (CC) added to the desired concentration 32 prior to incubation for the desired time at 37° C. 34. The supernatant was collected and frozen at −86° C. 36 prior to analysis and the brain organoids transferred to an Eppendorf with paraformaldehyde for electron microscopy 38.
FIG. 18 is a plot showing the anti-ZIKV activity of cladoniamide A (incubation with 1 μM CA for 72 hours; 2 biological replicates, each with 4 organoids/well) using four brain organoid systems. There was a greater than 4-log reduction in extracellular ZIKV titer when treated with CA. […] FIGS. 20 and 21 show plots showing the anti-ZIKV activity of CA and CC (incubation with 10 μM CA or CC for 69 hours, MOI 1; 4 technical replicates as there were 4 organoids/[…]).

As a reminder, the CC50 is the concentration giving 50% cytotoxicity. Read a high CC50 as better tolerance by the cells. What is called IC50 is the concentration that inhibits the measured activity by half. Take `COc1c2n(c3ccccc13)[C@]1(O)C(=O)N(C)C(=O)[C@]1(O)c1c-2[nH]c2ccc(Cl)cc12` [CA, (11S,15R)-7-chloro-11,15-dihydroxy-23-methoxy-13-methyl-3,13,16-triazahexacyclo[14.7.0.0^2,10.0^4,9.0^11,15.0^17,22]tricosa-1(23),2(10),4(9),5,7,17,19,21-octaene-12,14-dione]: the CC50 at 48 h in series [1] was 54 ± 5 µM; in series [2], 42 ± 12 µM. Besides, the IC50 in the series with ZIKV [3] was found to be 0.11 µM; in the series with DENV-2 (Dengue virus, DENV2, DENV-2, intracellular dsRNA (Cellomics)) it was 2.3 µM; in the series on DENV-3 (Dengue virus, DENV3, DENV-3, intracellular dsRNA (Cellomics)), 1.5 µM. For the same compound, the “activity against Dengue virus 2 in vitro” value with DENV-2 (1-20 μM, FIG. 8 upper plots) is given as “good activity”. Besides, the “activity against Dengue virus 3 in vitro” value in the series on DENV-3 (1-20 μM, FIG. 8 middle plots) is on record as “good activity”. Moreover, the “reduction in extracellular ZIKV titer” value in the series with ZIKV [4] is given as “greater than 4 log”.
